We go through eight molecules from patent US10981932B2, “Macrocyclic indole derivatives” (Bayer Aktiengesellschaft, priority 2016, dated 2021).

The structures appear in SMILES notation. Structures can show the parent of a compound that is named as a salt. Where two headings read alike, the source gives them in different places.

One data set has as its system A2780. The data set is described as follows: Anti-proliferative effect (CellTiter-Glo, 72 h), A2780. It is filed as cell-based. Particulars: A2780 cells, median, read-out: IC50 antiproliferation assay A2780 [M] (median). Put shortly: (§1)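 A time zero plate, read with CellTiter-Glo shortly after seeding, served as baseline; compound-treated plates were incubated 72 h at 37 °C and then read identically by luminescence.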
For orientation: In ATP-based viability assays light output follows the ATP content of the culture.

Another data set concerns the target MCL-1 (Homo sapiens, UniProt Q07820). In words: Protein-protein interaction assay MCL-1/Noxa BH3 peptide (MCL-1 assay), TR-FRET. It is filed as binding. Particulars: MBP-MCL-1 / Noxa BH3-derived peptide, median. In short, it runs like this:
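TR-FRET, 665/622 nm emission ratio (excitation 330–350 nm), measured MCL-1/Noxa complex formation. 1 nM MBP-MCL-1, 50 mM Tris/HCl pH 7, 0.1% BGG, 2 mM DTT. Incubation 1 h at 22 °C, then overnight at 4 °C. IC50 by 4-parameter regression, normalized to DMSO (0%) and no-MCL-1 (100%) controls.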

For data set [1], the system named is SUDHL5. The data set is described as follows: Induction of caspase-3/7 activity (Caspase-Glo 3/7), SUDHL5. Format: cell-based. The note with it: caspase-3/7 induction, SUDHL5 cells, 3 h treatment, median. Put shortly:
(§2)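 DLBCL cells treated with compounds for 3 h at 37 °C, then caspase-3/7 activity read by Caspase-Glo 3/7 luminescence. Medium-only background subtracted; EC50 fitted with C0 fixed at 1 and top set to the reference compound's maximal induction.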

A further data set has as its system OPM2. The data set is described as follows: Anti-proliferative effect (CellTiter-Glo, 72 h), OPM2. It is filed as cell-based. Particulars: OPM2 cells, median, read-out: IC50 antiproliferation assay OPM2 [M] (median). The method, then:
Assessment of the Anti-Proliferative Effect of Compounds in Different Cell Lines
The impact of compounds on the proliferation of different cell lines was assessed using the CellTiter-Glo® Luminescent Cell Viability reagent from Promega (G7573). Of note, SUDHL10 and SUDHL5 (DLBCL), NCI-H929 (Multiple Myeloma), A2780 (ovarian carcinoma) as well as MV-4-11(AML) cells are sensitive to MCL-1 inhibition.
In parallel, cells were plated in a reference (day 0) plate for time zero determination.
Rim wells were excluded. The cells were incubated for 72 h hours in a humidified incubator at 37° C. The day 0 plate was measured by adding 30 μl/well of CTG solution (CellTiter-Glo® Luminescent Cell Viability reagent, Promega G7573) to time zero wells in the reference plate followed by a 10 minutes incubation and luminescence reading at 0.1 ms, using the PHERAstar FS microplate reader (BMG Labtech).
After 72 h incubation, the treated plates were measured in the same way as the day 0 plate mentioned above.

Data set [2] has as its system SUDHL10. The data set is described as follows: Induction of caspase-3/7 activity (Caspase-Glo 3/7), SUDHL10. Format: cell-based. The note with it: caspase-3/7 induction, SUDHL10 cells, 3 h treatment, median. Put shortly:
as §2

Data set [3] deals with SUDHL10. In words: Induction of cytotoxicity (CellTiter-Glo, 5 h), SUDHL10.
Data set [4] deals with SUDHL5. The data set is described as follows: Induction of cytotoxicity (CellTiter-Glo, 5 h), SUDHL5.
Data set [5] concerns SUDHL5. In words: Anti-proliferative effect (CellTiter-Glo, 72 h), SUDHL5. Particulars: SUDHL5 cells, antiproliferation, 72 h, median, read-out: Antiproli SUDHL5 [M] (median). Format: cell-based. In short, it runs like this: as §1
The test system of data set [6] is SUDHL10. The data set is described as follows: Anti-proliferative effect (CellTiter-Glo, 72 h), SUDHL10. Format: cell-based. The note with it: SUDHL10 cells, antiproliferation, 72 h, median, read-out: Antiproli SUDHL10 [M] (median). In short, it runs like this:
as §1

[7] abbreviates: read-out: Cytotox SUDHL10 [M] (median), SUDHL10 cells, cytotoxicity induction, CellTiter-Glo, 5 h incubation, median.
Setting [8] is: read-out: Cytotox SUDHL5 [M] (median), SUDHL5 cells, cytotoxicity induction, CellTiter-Glo, 5 h incubation, median.
The mark [9] stands for this setting: read-out: Cytotox SUDHL10 [M] (median), SUDHL10 cells, cytotoxicity induction, CellTiter-Glo, 5 h, median.
Where [10] appears, read: read-out: Cytotox SUDHL5 [M] (median), SUDHL5 cells, cytotoxicity induction, CellTiter-Glo, 5 h, median.

Sequence of MCL-1 (Q07820 whole entry): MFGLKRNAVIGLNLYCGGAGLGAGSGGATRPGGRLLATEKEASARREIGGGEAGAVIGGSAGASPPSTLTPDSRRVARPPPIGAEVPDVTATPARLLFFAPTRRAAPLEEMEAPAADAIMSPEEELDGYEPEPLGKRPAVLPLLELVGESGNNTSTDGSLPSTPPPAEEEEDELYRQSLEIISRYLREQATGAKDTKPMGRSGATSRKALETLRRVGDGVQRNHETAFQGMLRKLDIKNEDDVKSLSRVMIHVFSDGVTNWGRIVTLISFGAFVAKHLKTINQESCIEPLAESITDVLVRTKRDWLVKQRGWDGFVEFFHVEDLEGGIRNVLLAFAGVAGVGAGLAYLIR

A word on the EC50: it is the concentration that produces a half-maximal response. `CC(C)OCc1nn(C)c2c1-c1cccc3c(CCCOc4cccc5ccccc45)c(C(=O)O)n(c13)C/C=C\COC2` (racemic) [Example 1-68, (rac)-(11Z)-1-methyl-7-[3-(naphthalen-1-yloxy)propyl]-3-[(propan-2-yloxy)methyl]-1,10,13,15-tetrahydropyrazolo[4′,3′:9,10][1,6]oxazacycloundecino[8,7,6-hi]indole-8-carboxylic Acid]: the IC50 was 2.87e-05 M in the data set on A2780 (Homo sapiens, A2780, 72 h); 0.0269 µM on MCL-1; more than 3.3e-05 M in the data set on OPM2 (Homo sapiens, OPM-2, 72 h). For the same molecule, the EC50 in the data set with SUDHL5 [1] (Homo sapiens, SU-DHL-5, 3 h) was more than 33 µM; in the data set with SUDHL10 [2] (Homo sapiens, SU-DHL10, 3 h), more than 33 µM.

As to `COCC(=O)N1CCN(c2ccc(OCc3nn(C)c4c3-c3cccc5c(CCCOc6cccc7ccccc67)c(C(=O)O)n(c35)CCCCOC4)cc2)CC1` (single isomer, unassigned; enantiomer 1) [Example 1-28, 3-({4-[4-(methoxyacetyl)piperazin-1-yl]phenoxy}methyl)-1-methyl-7-[3-(naphthalen-1-yloxy)propyl]-1,10,11,12,13,15-hexahydropyrazolo[4′,3′:9,10][1,6]oxazacycloundecino[8,7,6-hi]indole-8-carboxylic Acid (Enantiomer 1)], the IC50 is more than 3.3e-05 M in the data set on SUDHL10 [3] (setting [7]); 3.12e-05 M in the data set on A2780 (Homo sapiens, A2780, 72 h); 0.0709 µM on MCL-1; more than 3.3e-05 M in the data set with SUDHL5 [4] (setting [8]); 1.98e-05 M with OPM2. For the same molecule, the EC50 in the data set on SUDHL5 [1] and in the data set with SUDHL10 [2] was more than 33 µM each time.

As to `CC(=O)N1CCN(c2ccc(OCc3nn(C)c4c3-c3cccc5c(CCCOc6cccc7ccccc67)c(C(=O)O)n(c35)CCCCOC4)cc2)CC1` (single isomer, unassigned; enantiomer 2) [Example 1-26, 3-{[4-(4-acetylpiperazin-1-yl)phenoxy]methyl}-1-methyl-7-[3-(naphthalen-1-yloxy)propyl]-1,10,11,12,13,15-hexahydropyrazolo[4′,3′:9,10][1,6]oxazacycloundecino[8,7,6-hi]indole-8-carboxylic Acid (Enantiomer 2)], the IC50 with SUDHL10 [3] (setting [7]) is more than 3.3e-05 M; with A2780, 2.48e-05 M; against MCL-1, 0.00163 µM; in the data set on SUDHL5 [4] (setting [8]), more than 3.3e-05 M; in the data set with OPM2, 2e-06 M. For the same molecule, the EC50 with SUDHL5 [1] and with SUDHL10 [2] was more than 33 µM in each case.

With `Cn1nc(COc2ccc(NS(C)(=O)=O)cc2)c2c1COCCCCn1c(C(=O)O)c(CCCOc3cccc4ccccc34)c3cccc-2c31` (single isomer, unassigned; enantiomer 2) [Example 323, 1-methyl-3-({4-[(methylsulfonyl)amino]phenoxy}methyl)-7-[3-(naphthalen-1-yloxy)propyl]-1,10,11,12,13,15-hexahydropyrazolo[4′,3′:9,10][1,6]oxazacycloundecino[8,7,6-hi]indole-8-carboxylic acid-N-ethylethanamine Salt (Enantiomer 2)], the IC50 in the data set with SUDHL10 [3] (setting [9]) was more than 3.3e-05 M; in the data set with A2780, 2.18e-05 M; in the data set with SUDHL5 [5], 1.32e-05 M; against MCL-1 it was 0.32 µM; with SUDHL10 [6], 1.36e-05 M; in the data set on SUDHL5 [4] (setting [10]) it was more than 3.3e-05 M. The EC50 with SUDHL5 [1] and in the data set with SUDHL10 [2] was more than 33 µM throughout.

Turning to `Cn1nc(CN2CCCCC2=O)c2c1COCCCCn1c(C(=O)O)c(CCCOc3cccc4ccccc34)c3cccc-2c31` (single isomer, unassigned; enantiomer 2) [Example 327, 1-methyl-7-[3-(naphthalen-1-yloxy)propyl]-3-[(2-oxopiperidin-1-yl)methyl]-1,10,11,12,13,15-hexahydropyrazolo[4′,3′:9,10][1,6]oxazacycloundecino[8,7,6-hi]indole-8-carboxylic Acid (Enantiomer 2)], the IC50 was more than 3.3e-05 M in the data set on SUDHL10 [3] (setting [9]); 3.12e-05 M in the data set on A2780; 2.48e-05 M in the data set with SUDHL5 [5]; 0.103 µM against MCL-1; 1.3e-05 M with SUDHL10 [6]; more than 3.3e-05 M in the data set with SUDHL5 [4] (setting [10]). Besides, the EC50 with SUDHL5 [1] and with SUDHL10 [2] was more than 33 µM in each case.

Take `Cn1nc(CN2CCCC2=O)c2c1COCCCCn1c(C(=O)O)c(CCCOc3cccc4ccccc34)c3cccc-2c31` (single isomer, unassigned; enantiomer 2) [Example 329, 1-methyl-7-[3-(naphthalen-1-yloxy)propyl]-3-[(2-oxopyrrolidin-1-yl)methyl]-1,10,11,12,13,15-hexahydropyrazolo[4′,3′:9,10][1,6]oxazacycloundecino[8,7,6-hi]indole-8-carboxylic Acid (Enantiomer 2)]: the IC50 in the data set with SUDHL10 [3] (Homo sapiens, SU-DHL10, 5 h, read-out: Cytotox SUDHL10 [M] (median), SUDHL10 cells, cytotoxicity induction, CellTiter-Glo, 5 h, median) is more than 3.3e-05 M; in the data set on A2780 (Homo sapiens, A2780, 72 h) it was more than 3.3e-05 M; in the data set on SUDHL5 [5] (Homo sapiens, SU-DHL-5, 72 h), more than 3.3e-05 M; against MCL-1, 3 µM; with SUDHL10 [6] (Homo sapiens, SU-DHL10, 72 h), more than 3.3e-05 M; in the data set with SUDHL5 [4] (Homo sapiens, SU-DHL-5, 5 h, read-out: Cytotox SUDHL5 [M] (median), SUDHL5 cells, cytotoxicity induction, CellTiter-Glo, 5 h, median) it was more than 3.3e-05 M. In addition, the EC50 in the data set with SUDHL5 [1] (Homo sapiens, SU-DHL-5, 3 h) is more than 33 µM; with SUDHL10 [2] (Homo sapiens, SU-DHL10, 3 h) it was more than 33 µM.

As to `Cn1nc(CN2CCCC2)c2c1COCCCCn1c(C(=O)O)c(CCCOc3cccc4ccccc34)c3cccc-2c31` (single isomer, unassigned; enantiomer 2) [Example 337, 1-methyl-7-[3-(naphthalen-1-yloxy)propyl]-3-(pyrrolidin-1-ylmethyl)-1,10,11,12,13,15-hexahydropyrazolo[4′3′:9,10][1,6]oxazacycloundecino[8,7,6-hi]indole-carboxylic Acid (Enantiomer 2)], the IC50 was more than 3.3e-05 M with SUDHL10 [3] (setting [9]); more than 3.3e-05 M in the data set on A2780; 1.97e-05 M in the data set with SUDHL5 [5]; 0.977 µM on MCL-1; more than 3.3e-05 M with SUDHL10 [6]; more than 3.3e-05 M in the data set with SUDHL5 [4] (setting [10]). Besides, the EC50 in the data set on SUDHL5 [1] and with SUDHL10 [2] was more than 33 µM in each case.

As for `CC(=O)NCc1nn(C)c2c1-c1cccc3c(CCCOc4cccc5ccccc45)c(C(=O)O)n(c13)CCCCOC2` (single isomer, unassigned; enantiomer 2) [Example 341, 3-[(acetylamino)methyl]-1-methyl-7-[3-(naphthalen-1-yloxy)propyl]-1,10,11,12,13,15-hexahydropyrazolo[4′3′:9,10][1,6]oxazacycloundecino[8,7,6-hi]indole-cararboxylic Acid (Enantiomer 2)], the IC50 in the data set on SUDHL10 [3] (setting [9]) is more than 3.3e-05 M; with A2780 it was more than 3.3e-05 M; in the data set on SUDHL5 [5] it was 6.48e-06 M; against MCL-1 it was 0.651 µM; in the data set on SUDHL10 [6], more than 3.3e-05 M; in the data set on SUDHL5 [4] (setting [10]), 2.64e-05 M. The EC50 with SUDHL5 [1] and with SUDHL10 [2] was more than 33 µM throughout.
